Test system: Anopheles stephensi
Assay: Anopheles stephensi treated well plate contact test: knockdown and mortality
Type: in vivo
Settings: Anopheles stephensi; test compound 0.2 ppm, without TFNA-AM, after 24 hours; read-out: mortality % 24, without TFNA-AM
Procedure, shortened: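 Well surfaces coated with ethanol solution of compound at a defined concentration, alone or with 2 ppm TFNA-AM, then dried. Five non-blood-fed 2–5-day-old adult females per well, fed 10% sucrose; knockdown scored at 1 hour, mortality at 24 and 48 hours, replicate means reported.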

Compound | mortality at 0.2 ppm [%]
CN1COCN(Cc2cnc(Cl)s2)/C1=N\[N+](=O)[O-] [Thiamethoxam] | 0
CON=C(C(=O)OC)c1ccccc1CON=C(C)c1cccc(C(F)(F)F)c1 [Trifloxystrobin] | 0

Same assay, conditions: Anopheles stephensi; test compound 0.2 ppm, without TFNA-AM, after 48 hours; read-out: mortality % 48, without TFNA-AM

Compound | mortality at 0.2 ppm [%]
CN1COCN(Cc2cnc(Cl)s2)/C1=N\[N+](=O)[O-] [Thiamethoxam] | 0
CON=C(C(=O)OC)c1ccccc1CON=C(C)c1cccc(C(F)(F)F)c1 [Trifloxystrobin] | 0

Same assay, conditions: Anopheles stephensi; test compound 0.2 ppm, without TFNA-AM, knockdown after 1 hour; read-out: Knock Down, without TFNA-AM

Compound | pest or weed control at 0.2 ppm [%]
CN1COCN(Cc2cnc(Cl)s2)/C1=N\[N+](=O)[O-] [Thiamethoxam] | 0
CON=C(C(=O)OC)c1ccccc1CON=C(C)c1cccc(C(F)(F)F)c1 [Trifloxystrobin] | 0

Same assay, conditions: Anopheles stephensi; test compound 2 ppm, without TFNA-AM, after 24 hours; read-out: mortality % 24, without TFNA-AM

Compound | mortality at 2 ppm [%]
CN1COCN(Cc2cnc(Cl)s2)/C1=N\[N+](=O)[O-] [Thiamethoxam] | 40
CON=C(C(=O)OC)c1ccccc1CON=C(C)c1cccc(C(F)(F)F)c1 [Trifloxystrobin] | 0

Same assay, conditions: Anopheles stephensi; test compound 2 ppm, without TFNA-AM, after 48 hours; read-out: mortality % 48, without TFNA-AM

Compound | mortality at 2 ppm [%]
CN1COCN(Cc2cnc(Cl)s2)/C1=N\[N+](=O)[O-] [Thiamethoxam] | 40
CON=C(C(=O)OC)c1ccccc1CON=C(C)c1cccc(C(F)(F)F)c1 [Trifloxystrobin] | 0

Same assay, conditions: Anopheles stephensi; test compound 2 ppm, without TFNA-AM, knockdown after 1 hour; read-out: Knock Down, without TFNA-AM

Compound | pest or weed control at 2 ppm [%]
CN1COCN(Cc2cnc(Cl)s2)/C1=N\[N+](=O)[O-] [Thiamethoxam] | 0
CON=C(C(=O)OC)c1ccccc1CON=C(C)c1cccc(C(F)(F)F)c1 [Trifloxystrobin] | 50

Same assay, conditions: Anopheles stephensi; test compound 20 ppm, without TFNA-AM, after 24 hours; read-out: mortality % 24, without TFNA-AM

Compound | mortality at 20 ppm [%]
CN1COCN(Cc2cnc(Cl)s2)/C1=N\[N+](=O)[O-] [Thiamethoxam] | 60
CON=C(C(=O)OC)c1ccccc1CON=C(C)c1cccc(C(F)(F)F)c1 [Trifloxystrobin] | 0

Same assay, conditions: Anopheles stephensi; test compound 20 ppm, without TFNA-AM, after 48 hours; read-out: mortality % 48, without TFNA-AM

Compound | mortality at 20 ppm [%]
CN1COCN(Cc2cnc(Cl)s2)/C1=N\[N+](=O)[O-] [Thiamethoxam] | 40
CON=C(C(=O)OC)c1ccccc1CON=C(C)c1cccc(C(F)(F)F)c1 [Trifloxystrobin] | 0

Same assay, conditions: Anopheles stephensi; test compound 20 ppm, without TFNA-AM, knockdown after 1 hour; read-out: Knock Down, without TFNA-AM

Compound | pest or weed control at 20 ppm [%]
CN1COCN(Cc2cnc(Cl)s2)/C1=N\[N+](=O)[O-] [Thiamethoxam] | 0
CON=C(C(=O)OC)c1ccccc1CON=C(C)c1cccc(C(F)(F)F)c1 [Trifloxystrobin] | 70

Same assay, conditions: Anopheles stephensi; test compound 200 ppm, without TFNA-AM, after 24 hours; read-out: mortality % 24, without TFNA-AM

Compound | mortality at 200 ppm [%]
CN1COCN(Cc2cnc(Cl)s2)/C1=N\[N+](=O)[O-] [Thiamethoxam] | 80
CON=C(C(=O)OC)c1ccccc1CON=C(C)c1cccc(C(F)(F)F)c1 [Trifloxystrobin] | 0

Same assay, conditions: Anopheles stephensi; test compound 200 ppm, without TFNA-AM, after 48 hours; read-out: mortality % 48, without TFNA-AM

Compound | mortality at 200 ppm [%]
CN1COCN(Cc2cnc(Cl)s2)/C1=N\[N+](=O)[O-] [Thiamethoxam] | 80
CON=C(C(=O)OC)c1ccccc1CON=C(C)c1cccc(C(F)(F)F)c1 [Trifloxystrobin] | 0

Same assay, conditions: Anopheles stephensi; test compound 200 ppm, without TFNA-AM, knockdown after 1 hour, adult females; read-out: Knock Down, without TFNA-AM

Compound | pest or weed control at 200 ppm [%]
CN1COCN(Cc2cnc(Cl)s2)/C1=N\[N+](=O)[O-] [Thiamethoxam] | 0
CON=C(C(=O)OC)c1ccccc1CON=C(C)c1cccc(C(F)(F)F)c1 [Trifloxystrobin] | 80

Same assay, conditions: test compound 0.2 ppm plus 2 ppm TFNA-AM, after 24 hours

Compound | mortality % 24, with TFNA-AM [%]
CN1COCN(Cc2cnc(Cl)s2)/C1=N\[N+](=O)[O-] [Thiamethoxam] | 20
CON=C(C(=O)OC)c1ccccc1CON=C(C)c1cccc(C(F)(F)F)c1 [Trifloxystrobin] | 0
O=c1c(-c2cccc(C(F)(F)F)c2)c([O-])[n+](Cc2cncnc2)c2ccccn12 [Triflumizopyrim] | 0
Abamectin | 20
Emamectin benzoate | 30

Same assay, conditions: test compound 0.2 ppm plus 2 ppm TFNA-AM, after 48 hours

Compound | mortality % 48, with TFNA-AM [%]
CON=C(C(=O)OC)c1ccccc1CON=C(C)c1cccc(C(F)(F)F)c1 [Trifloxystrobin] | 0
O=c1c(-c2cccc(C(F)(F)F)c2)c([O-])[n+](Cc2cncnc2)c2ccccn12 [Triflumizopyrim] | 0
Abamectin | 27
Emamectin benzoate | 20

Same assay, conditions: test compound 0.2 ppm plus 2 ppm TFNA-AM, knockdown after 1 hour

Compound | Knock Down, with TFNA-AM [%]
CN1COCN(Cc2cnc(Cl)s2)/C1=N\[N+](=O)[O-] [Thiamethoxam] | 100
CON=C(C(=O)OC)c1ccccc1CON=C(C)c1cccc(C(F)(F)F)c1 [Trifloxystrobin] | 100
O=c1c(-c2cccc(C(F)(F)F)c2)c([O-])[n+](Cc2cncnc2)c2ccccn12 [Triflumizopyrim] | 100
Abamectin | 100
Emamectin benzoate | 100

Same assay, conditions: test compound 0.2 ppm, without TFNA-AM, after 24 hours

Compound | mortality % 24, without TFNA-AM [%]
O=c1c(-c2cccc(C(F)(F)F)c2)c([O-])[n+](Cc2cncnc2)c2ccccn12 [Triflumizopyrim] | 0
Abamectin | 13
Emamectin benzoate | 0

Same assay, conditions: test compound 0.2 ppm, without TFNA-AM, after 48 hours

Compound | mortality % 48, without TFNA-AM [%]
O=c1c(-c2cccc(C(F)(F)F)c2)c([O-])[n+](Cc2cncnc2)c2ccccn12 [Triflumizopyrim] | 0
Abamectin | 20
Emamectin benzoate | 0

Same assay, conditions: test compound 0.2 ppm, without TFNA-AM, knockdown after 1 hour

Compound | Knock Down, without TFNA-AM [%]
O=c1c(-c2cccc(C(F)(F)F)c2)c([O-])[n+](Cc2cncnc2)c2ccccn12 [Triflumizopyrim] | 0
Abamectin | 0
Emamectin benzoate | 0

Same assay, conditions: test compound 2 ppm plus 2 ppm TFNA-AM, after 24 hours

Compound | mortality % 24, with TFNA-AM [%]
CON=C(C(=O)OC)c1ccccc1CON=C(C)c1cccc(C(F)(F)F)c1 [Trifloxystrobin] | 60
O=c1c(-c2cccc(C(F)(F)F)c2)c([O-])[n+](Cc2cncnc2)c2ccccn12 [Triflumizopyrim] | 50
Abamectin | 47
Emamectin benzoate | 60

Same assay, conditions: test compound 2 ppm plus 2 ppm TFNA-AM, after 48 hours

Compound | mortality % 48, with TFNA-AM [%]
CN1COCN(Cc2cnc(Cl)s2)/C1=N\[N+](=O)[O-] [Thiamethoxam] | 100
CON=C(C(=O)OC)c1ccccc1CON=C(C)c1cccc(C(F)(F)F)c1 [Trifloxystrobin] | 70
O=c1c(-c2cccc(C(F)(F)F)c2)c([O-])[n+](Cc2cncnc2)c2ccccn12 [Triflumizopyrim] | 50
Abamectin | 53
Emamectin benzoate | 60

Same assay, conditions: test compound 2 ppm plus 2 ppm TFNA-AM, knockdown after 1 hour

Compound | Knock Down, with TFNA-AM [%]
CN1COCN(Cc2cnc(Cl)s2)/C1=N\[N+](=O)[O-] [Thiamethoxam] | 100
CON=C(C(=O)OC)c1ccccc1CON=C(C)c1cccc(C(F)(F)F)c1 [Trifloxystrobin] | 100
O=c1c(-c2cccc(C(F)(F)F)c2)c([O-])[n+](Cc2cncnc2)c2ccccn12 [Triflumizopyrim] | 100
Abamectin | 100
Emamectin benzoate | 100

Same assay, conditions: test compound 2 ppm, without TFNA-AM, after 24 hours

Compound | mortality % 24, without TFNA-AM [%]
O=c1c(-c2cccc(C(F)(F)F)c2)c([O-])[n+](Cc2cncnc2)c2ccccn12 [Triflumizopyrim] | 0
Abamectin | 13
Emamectin benzoate | 0

Same assay, conditions: test compound 2 ppm, without TFNA-AM, after 48 hours

Compound | mortality % 48, without TFNA-AM [%]
O=c1c(-c2cccc(C(F)(F)F)c2)c([O-])[n+](Cc2cncnc2)c2ccccn12 [Triflumizopyrim] | 0
Abamectin | 33
Emamectin benzoate | 10

Same assay, conditions: test compound 2 ppm, without TFNA-AM, knockdown after 1 hour

Compound | Knock Down, without TFNA-AM [%]
O=c1c(-c2cccc(C(F)(F)F)c2)c([O-])[n+](Cc2cncnc2)c2ccccn12 [Triflumizopyrim] | 0
Abamectin | 0
Emamectin benzoate | 0

Same assay, conditions: test compound 20 ppm plus 2 ppm TFNA-AM, after 24 hours

Compound | mortality % 24, with TFNA-AM [%]
CON=C(C(=O)OC)c1ccccc1CON=C(C)c1cccc(C(F)(F)F)c1 [Trifloxystrobin] | 100
O=c1c(-c2cccc(C(F)(F)F)c2)c([O-])[n+](Cc2cncnc2)c2ccccn12 [Triflumizopyrim] | 90
Abamectin | 93
Emamectin benzoate | 100

Same assay, conditions: test compound 20 ppm plus 2 ppm TFNA-AM, after 48 hours

Compound | mortality % 48, with TFNA-AM [%]
CN1COCN(Cc2cnc(Cl)s2)/C1=N\[N+](=O)[O-] [Thiamethoxam] | 100
CON=C(C(=O)OC)c1ccccc1CON=C(C)c1cccc(C(F)(F)F)c1 [Trifloxystrobin] | 100
O=c1c(-c2cccc(C(F)(F)F)c2)c([O-])[n+](Cc2cncnc2)c2ccccn12 [Triflumizopyrim] | 100
Abamectin | 100
Emamectin benzoate | 100

Same assay, conditions: test compound 20 ppm plus 2 ppm TFNA-AM, knockdown after 1 hour

Compound | Knock Down, with TFNA-AM [%]
CN1COCN(Cc2cnc(Cl)s2)/C1=N\[N+](=O)[O-] [Thiamethoxam] | 100
CON=C(C(=O)OC)c1ccccc1CON=C(C)c1cccc(C(F)(F)F)c1 [Trifloxystrobin] | 100
O=c1c(-c2cccc(C(F)(F)F)c2)c([O-])[n+](Cc2cncnc2)c2ccccn12 [Triflumizopyrim] | 100
Abamectin | 100
Emamectin benzoate | 100

Same assay, conditions: test compound 20 ppm, without TFNA-AM, after 24 hours

Compound | mortality % 24, without TFNA-AM [%]
O=c1c(-c2cccc(C(F)(F)F)c2)c([O-])[n+](Cc2cncnc2)c2ccccn12 [Triflumizopyrim] | 0
Abamectin | 53
Emamectin benzoate | 40

Same assay, conditions: test compound 20 ppm, without TFNA-AM, after 48 hours

Compound | mortality % 48, without TFNA-AM [%]
O=c1c(-c2cccc(C(F)(F)F)c2)c([O-])[n+](Cc2cncnc2)c2ccccn12 [Triflumizopyrim] | 10
Abamectin | 87
Emamectin benzoate | 90

Same assay, conditions: test compound 20 ppm, without TFNA-AM, knockdown after 1 hour

Compound | Knock Down, without TFNA-AM [%]
O=c1c(-c2cccc(C(F)(F)F)c2)c([O-])[n+](Cc2cncnc2)c2ccccn12 [Triflumizopyrim] | 0
Abamectin | 7
Emamectin benzoate | 0

Same assay, conditions: test compound 200 ppm plus 2 ppm TFNA-AM, after 24 hours

Compound | mortality % 24, with TFNA-AM [%]
CN1COCN(Cc2cnc(Cl)s2)/C1=N\[N+](=O)[O-] [Thiamethoxam] | 100
CON=C(C(=O)OC)c1ccccc1CON=C(C)c1cccc(C(F)(F)F)c1 [Trifloxystrobin] | 100
O=c1c(-c2cccc(C(F)(F)F)c2)c([O-])[n+](Cc2cncnc2)c2ccccn12 [Triflumizopyrim] | 100
Abamectin | 100
Emamectin benzoate | 100

Same assay, conditions: test compound 200 ppm plus 2 ppm TFNA-AM, after 48 hours

Compound | mortality % 48, with TFNA-AM [%]
CN1COCN(Cc2cnc(Cl)s2)/C1=N\[N+](=O)[O-] [Thiamethoxam] | 100
CON=C(C(=O)OC)c1ccccc1CON=C(C)c1cccc(C(F)(F)F)c1 [Trifloxystrobin] | 100
O=c1c(-c2cccc(C(F)(F)F)c2)c([O-])[n+](Cc2cncnc2)c2ccccn12 [Triflumizopyrim] | 100
Abamectin | 100
Emamectin benzoate | 100

Same assay, conditions: test compound 200 ppm plus 2 ppm TFNA-AM, knockdown after 1 hour

Compound | Knock Down, with TFNA-AM [%]
CN1COCN(Cc2cnc(Cl)s2)/C1=N\[N+](=O)[O-] [Thiamethoxam] | 100
CON=C(C(=O)OC)c1ccccc1CON=C(C)c1cccc(C(F)(F)F)c1 [Trifloxystrobin] | 100
O=c1c(-c2cccc(C(F)(F)F)c2)c([O-])[n+](Cc2cncnc2)c2ccccn12 [Triflumizopyrim] | 100
Abamectin | 100
Emamectin benzoate | 100

Same assay, conditions: test compound 200 ppm, without TFNA-AM, after 24 hours

Compound | mortality % 24, without TFNA-AM [%]
O=c1c(-c2cccc(C(F)(F)F)c2)c([O-])[n+](Cc2cncnc2)c2ccccn12 [Triflumizopyrim] | 40
Abamectin | 100
Emamectin benzoate | 40

Same assay, conditions: test compound 200 ppm, without TFNA-AM, after 48 hours

Compound | mortality % 48, without TFNA-AM [%]
O=c1c(-c2cccc(C(F)(F)F)c2)c([O-])[n+](Cc2cncnc2)c2ccccn12 [Triflumizopyrim] | 40
Abamectin | 100
Emamectin benzoate | 90

Same assay, conditions: test compound 200 ppm, without TFNA-AM, knockdown after 1 hour, adult females

Compound | Knock Down, without TFNA-AM [%]
O=c1c(-c2cccc(C(F)(F)F)c2)c([O-])[n+](Cc2cncnc2)c2ccccn12 [Triflumizopyrim] | 0
Abamectin | 47
Emamectin benzoate | 0

Reference: US20260206755A1, “COMPOUNDS AND COMPOSITIONS HAVING KNOCK-DOWN OR BLOOD FEED INHIBITION ACTIVITY AGAINST INSECT PESTS” (priority 2017, published 2026)
